Data taken from patent US20040170669A1, “Feed rations and methods of feeding growing ruminants” (priority 2002, published 2004).
Marks after values point to notes of the source that are not given here. Each block holds one compound with its values, some of them ahead of it.

Legend:
[1] = 112-day feeding trial: growing beef cattle fed bermudagrass hay plus molasses-based supplements with corn gluten meal or Alimet; type: in vivo, Angus-Brahman crossbred cattle; conditions: for Liquid supplement refusal: molasses based supplement remaining from last feeding: one value per feeding date; for BCS change (0-112 days): body condition score; for Added gain: over control; for TDN consumed: total digestible nutrients
Protocol: An experiment was conducted to study the effect of increasing quantities of methionine from corn gluten meal, an 88% free acid solution of 2-hydroxy-4-(methylthio)butanoic acid sold under the trademark Alimet® (Novus International, Inc., St. Louis, Mo.), on the performance of growing beef cattle fed bermuda grass hay supplemented with molasses-based supplements. The experiment evaluated the effects of adding corn gluten meal or Alimet® to diets of hay supplemented with molasses-based supplements fed to growing beef cattle.
This experiment evaluated corn gluten meal and Alimet® fed to growing beef cattle at four levels to provide 0, 2, 4, and 6 gm/day of added bypass total sulfur amino acids (TSAA) assuming a 40% bypass of Alimet®. An […] treatment was formulated to provide 8 gm/day of added bypass TSAA from Alimet®. Both TSAA sources were provided in a liquid supplement slurry containing 82% fortified molasses (fortified with ‘12% crude protein, minerals, vitamins) and 18% ground corn or corn gluten meal. Corn gluten meal replaced corn in the supplement keeping the proportion of dry ingredients in the supplement similar across TSAA sources and levels. All supplements were offered to growing cattle to provide 3.28 lb/day of total digestible nutrients (TDN). Supplements were formulated to provide adequate nitrogen in the form of rumen degradable intake protein (DIP) with 0.18 lb DIP provided for each pound of TDN. Much of the DIP in supplements was provided by urea.
This experiment was conducted at the Santa Fe Beef Unit located near Gainesville. Thirty-two pens (4 head/pen) of Angus-Brahman crossbred cattle (9-12 months of age) were assigned randomly within sex and breed type. The calves averaged 610 lb and calves were in excellent body condition (BCS 5.8) at the start of the trial. Each pen was assigned two steers and two heifers. These 32 pens were randomly assigned to the 8 treatments. Each pen was a two-acre pasture and most grass was grazed off at the start of the trial but warm weather allowed some grass growth during February and March. Molasses slurries were fed on two days each week (equivalent amount for 3 or 4 days at each feeding) at the equivalent daily rate. Molasses slurries were hand mixed in each pen and fed in open troughs. Alimet® was pre-weighed in the laboratory and mixed in the supplement of the assigned pen at each feeding. Bermuda grass hay was offered ad libitum in hay rings outside (no shelter) and molasses slurries were limit fed during the 112-day trial (December thru April). Hay not consumed was collected, weighed, sampled (dry matter analyzed), and removed from the pens every 6 to 8 weeks during the trial. Water and a mineral-vitamin supplement were offered ad libitum.
Supplement consumption, hay consumption, full weight, shrunk weight (beginning and end only), height, body condition, and blood urea (2 calves/pen) were measured at 28-day intervals during the 112-day trial. Supplement ingredients were sampled twice monthly and each hay bale was weighed and sampled prior to feeding. Supplement ingredients were analyzed for dry matter, organic matter, crude protein, bypass protein, amino acids, and minerals. Hay samples were analyzed for dry matter, organic matter, crude protein, amino acids, in vitro organic matter digestibility, neutral detergent fiber, and minerals.

[2] = 0 to 6 month old calves, hay plus compound feed; cited from earlier work
[3] = 2 gm bypass TSAA/d (Alimet 5.7 g/d)
[4] = 4 gm bypass TSAA/d (Alimet 11.4 g/d)
[5] = 6 gm bypass TSAA/d (Alimet 17 g/d)
[6] = 8 gm bypass TSAA/d (Alimet 22.7 g/d)

- Liquid supplement refusal: molasses based supplement remaining from last feeding ([1]; Alimet 5.7 g/d, pen 1): 25 pounds
- Liquid supplement refusal: molasses based supplement remaining from last feeding ([1]; Alimet 11.4 g/d, pen 8): 35 pounds
- Liquid supplement refusal: molasses based supplement remaining from last feeding ([1]; Alimet 17 g/d, pen 5): 15 pounds
- Liquid supplement refusal: molasses based supplement remaining from last feeding ([1]; Alimet 22.7 g/d, pen 4, feeding date 2.19): 40 pounds
- Liquid supplement refusal: molasses based supplement remaining from last feeding ([1]; Alimet 22.7 g/d, pen 4, feeding date 12.18): 20 pounds
- Liquid supplement refusal: molasses based supplement remaining from last feeding ([1]; Alimet 22.7 g/d, pen 4, feeding date 12.22): 25 pounds
- Liquid supplement refusal: molasses based supplement remaining from last feeding ([1]; Alimet 22.7 g/d, pen 4, feeding date 12.26): 30 pounds
- Liquid supplement refusal: molasses based supplement remaining from last feeding ([1]; Alimet 22.7 g/d, pen 4, feeding date 12.29): 35 pounds
- Liquid supplement refusal: molasses based supplement remaining from last feeding ([1]; Alimet 22.7 g/d, pen F, feeding date 1.22): 20 pounds
- Liquid supplement refusal: molasses based supplement remaining from last feeding ([1]; Alimet 22.7 g/d, pen F, feeding date 3.01): 35 pounds
SMILES: CSCCC(O)C(=O)O (centres unmarked) [Alimet, 2-hydroxy-4-(methylthio)butanoic acid]
- Daily gain, 0-28 days (full wt) [1, 3]: 1.58 lb/d
- Daily gain, 0-112 days (full wt) [1, 3]: 1.61 lb/d
- Daily gain, 1-113 days (shrunk wt) [1, 3]: 1.35^bc lb/d
- Daily gain, 28-56 days (full wt) [1, 3]: 1.92 lb/d
- Daily gain, 56-84 days (full wt) [1, 3]: 1.09 lb/d
- Daily gain, 84-112 days (full wt) [1, 3]: 1.90 lb/d
- Feed consumed, Hay [1, 3]: 11.23^b lb/d DM
- Feed consumed, Supplement [1, 3]: 4.51^a lb/d DM
- Feed consumed, Total [1, 3]: 15.74^b lb/d DM
- Feed efficiency, Gain/TDN [1, 3]: .149^acd
- Feed efficiency, Gain/feed DM [1, 3]: .087^c
- Height change (0-112 days) [1, 3]: 2.73 in.
- Daily gain, 0-28 days (full wt) [1, 4]: 1.88 lb/d
- Daily gain, 0-112 days (full wt) [1, 4]: 1.53 lb/d
- Daily gain, 1-113 days (shrunk wt) [1, 4]: 1.31^ab lb/d
- Daily gain, 28-56 days (full wt) [1, 4]: 1.46 lb/d
- Daily gain, 56-84 days (full wt) [1, 4]: .99 lb/d
- Daily gain, 84-112 days (full wt) [1, 4]: 1.82 lb/d
- Feed consumed, Hay [1, 4]: 10.49^b lb/d DM
- Feed consumed, Supplement [1, 4]: 4.51^a lb/d DM
- Feed consumed, Total [1, 4]: 14.99^b lb/d DM
- Feed efficiency, Gain/TDN [1, 4]: .149^acd
- Feed efficiency, Gain/feed DM [1, 4]: .088^c
- Height change (0-112 days) [1, 4]: 2.45 in.
- Daily gain, 0-28 days (full wt) [1, 5]: 1.77 lb/d
- Daily gain, 0-112 days (full wt) [1, 5]: 1.69 lb/d
- Daily gain, 1-113 days (shrunk wt) [1, 5]: 1.44^bc lb/d
- Daily gain, 28-56 days (full wt) [1, 5]: 1.68 lb/d
- Daily gain, 56-84 days (full wt) [1, 5]: 1.40 lb/d
- Daily gain, 84-112 days (full wt) [1, 5]: 1.98 lb/d
- Feed consumed, Hay [1, 5]: 11.04^b lb/d DM
- Feed consumed, Supplement [1, 5]: 4.45^a lb/d DM
- Feed consumed, Total [1, 5]: 15.49^b lb/d DM
- Feed efficiency, Gain/TDN [1, 5]: .159^ad
- Feed efficiency, Gain/feed DM [1, 5]: .094^a
- Height change (0-112 days) [1, 5]: 2.80 in.
- Daily gain, 0-28 days (full wt) [1, 6]: 1.24 lb/d
- Daily gain, 0-112 days (full wt) [1, 6]: 1.52 lb/d
- Daily gain, 1-113 days (shrunk wt) [1, 6]: 1.31^ab lb/d
- Daily gain, 28-56 days (full wt) [1, 6]: 1.49 lb/d
- Daily gain, 56-84 days (full wt) [1, 6]: .93 lb/d
- Daily gain, 84-112 days (full wt) [1, 6]: 2.48 lb/d
- Feed consumed, Hay [1, 6]: 10.49^b lb/d DM
- Feed consumed, Supplement [1, 6]: 4.08^b lb/d DM
- Feed consumed, Total [1, 6]: 14.57^ab lb/d DM
- Feed efficiency, Gain/TDN [1, 6]: .154^d
- Feed efficiency, Gain/feed DM [1, 6]: .091^a
- Height change (0-112 days) [1, 6]: 2.79 in.
- BCS change (0-112 days) [1, 3]: +.14
- BCS change (0-112 days) [1, 4]: +.09
- BCS change (0-112 days) [1, 5]: +.18
- BCS change (0-112 days) [1, 6]: +.08
- Added gain [1, 3]: .17 lb/d
- Added gain [1, 4]: .13 lb/d
- Added gain [1, 5]: .26 lb/d
- Added gain [1, 6]: .13 lb/d
- TDN consumed [1, 3]: 9.21^b lb/d
- TDN consumed [1, 4]: 8.84^b lb/d
- TDN consumed [1, 5]: 9.13^b lb/d
- TDN consumed [1, 6]: 8.56^ab lb/d

SMILES: CSCCC(O)C(=O)[O-].CSCCC(O)C(=O)[O-].[Ca+2] (centres unmarked) [calcium salt of 2-hydroxy-4-(methylthio)butanoic acid]
- Increase of average daily weight gain over control calves [2]: 8-10%
